Measured values from publication PMC13377601, “Discovery of VU6066098: A Selective and CNS-Penetrant mGlu2 NAM with Robust Antidepressant‑, Antipsychotic‑, and Procognitive-like Activity in Rodents” (ACS Chemical Neuroscience, 2026).

Target: T1, human mGlu2 (Homo sapiens, UniProt Q14416)
T1 construct: expressed in transfected cells; host or cells: HEK293 stably co-expressing GIRK channels
Assay: mGlu2/GIRK thallium flux assay (human)
Format: cell-based
Details: NAM vs glutamate EC80
Protocol: Molecular Pharmacolgy Methods
Assessment of Cellular Potency of mGlu2 compounds in Thallium Flux Assay Human embryonic kidney 293 (HEK293) cell lines stably co-expressing human or rat mGlu2 and G protein-coupled inwardly rectifying potassium (GIRK) channels were maintained in growth medium containing DMEM/F12 containing 10% FBS, 20 mM HEPES, 1 mM sodium pyruvate, 2 mM L-glutamine, non-essential amino acids mixture, 1X Antibiotic/Antimycotic, 700 μg/mL G418, and 0.6 μg/mL puromycin. […]
Using a microplate washer (BioTek, Winooski, VT), cells were washed with GIRK assay buffer 4 times to remove media. […] The compound, agonist, and cell plates were placed inside the Functional Drug Screening System (FDSS 7000 or µCell kinetic imaging plate reader, Hamamatsu, Japan) to measure the thallium flux using a double add protocol. After establishment of a fluorescence baseline (excitation, 480 nm; emission, 530 nm), 20 µL (2x) of test compound was added to the cells at 2 seconds and the response was measured. 140 seconds later, 10 µL (5x) of an EC80 concentration of glutamate or vehicle in thallium stimulus buffer was added to the cells, and the response of the cells was measured for an additional 158 seconds. […] Fluorescence was measured […]
The average of all baseline slopes (no compound, no glutamate) was determined and this value was subtracted from all other slope values.

T1 sequence (Q14416 19-872): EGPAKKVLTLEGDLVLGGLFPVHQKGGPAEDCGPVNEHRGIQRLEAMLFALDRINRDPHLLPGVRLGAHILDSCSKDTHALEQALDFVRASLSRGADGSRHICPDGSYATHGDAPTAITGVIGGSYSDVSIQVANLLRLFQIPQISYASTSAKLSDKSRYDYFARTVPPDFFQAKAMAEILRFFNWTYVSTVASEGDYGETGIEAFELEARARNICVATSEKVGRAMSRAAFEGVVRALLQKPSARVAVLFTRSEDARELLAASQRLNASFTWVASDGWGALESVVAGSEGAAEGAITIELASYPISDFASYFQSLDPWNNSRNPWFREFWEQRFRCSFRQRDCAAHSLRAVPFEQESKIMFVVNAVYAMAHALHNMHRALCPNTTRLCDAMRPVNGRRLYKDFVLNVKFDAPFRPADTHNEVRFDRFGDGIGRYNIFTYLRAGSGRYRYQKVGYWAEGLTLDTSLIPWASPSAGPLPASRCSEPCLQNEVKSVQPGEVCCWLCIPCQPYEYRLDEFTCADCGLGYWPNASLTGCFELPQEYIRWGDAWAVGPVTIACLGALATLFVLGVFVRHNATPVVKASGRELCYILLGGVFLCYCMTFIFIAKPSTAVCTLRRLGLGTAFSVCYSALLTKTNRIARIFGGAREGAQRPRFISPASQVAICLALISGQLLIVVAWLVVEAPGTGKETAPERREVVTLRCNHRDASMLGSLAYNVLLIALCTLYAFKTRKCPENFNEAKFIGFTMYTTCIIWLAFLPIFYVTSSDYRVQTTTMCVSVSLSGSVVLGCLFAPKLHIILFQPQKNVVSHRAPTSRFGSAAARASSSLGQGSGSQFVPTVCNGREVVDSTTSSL

Cn1ccc(COc2cnc(C(N)=O)cc2-c2ccc(F)cc2)n1 [NAM 5]
IC50: 78 nM
